This is an account of results in patent publication US7557107B2, “Farnesyl protein transferase inhibitors as antitumor agents” (Schering Coporation, priority 2003, dated 2009).

The target of experiment [1] is purified human farnesyl protein transferase (Homo sapiens, UniProt P49354+P49356). As to the kind of experiment: FPT activity: transfer of [3H] farnesyl from [3H] farnesyl pyrophosphate to biotinylated H-ras peptide (SPA). Type of experiment: biochemical. To be noted: 0.03 nM enzyme, 37° C., 60 minutes. The procedure:
FPT activity was determined by measuring the transfer of [^3H] farnesyl from [^3H] farnesyl pyrophosphate to a biotinylated peptide derived from the C-terminus of H-ras (biotin-CVLS). The reaction mixture contains: 50 mM Tris pH7.7, 5 mM MgCl2, 5 μM Zn^++, 5 mM DTT, 0.1% Triton-X, 0.05 μM peptide, 0.03 nM purified human farnesyl protein transferase, 0.180 μM [^3H] farnesyl pyrophosphate, plus the indicated concentration of tricyclic compound or vehicle control in a total volume of 100 μl. The reaction was incubated in a yortemp shaking incubator at 37° C., 45 RPM for 60 minutes and stopped with 150 μl of 0.25 M EDTA containing 0.5% BSA and 1.3 mg/ml Streptavidin SPA beads. Radioactivity was measured in a Wallach 1450 Microbeta liquid scintillation counter. Percent inhibition was calculated relative to the vehicle control.

The next experiment concerns Human tumor cells. The experiment is described as follows: Soft Agar Assay (anchorage-independent growth). The class given is cell-based. To be noted: colony outgrowth 10-16 days, MTT stain. The procedure: Anchorage-independent growth is a characteristic of tumorigenic cell lines. Human tumor cells can be suspended in growth medium containing 0.3% agarose and an indicated concentration of a famesyl transferase inhibitor. The solution can be overlayed onto growth medium solidified with 0.6% agarose containing the same concentration of farnesyl transferase inhibitor as the top layer. After the top layer is solidified, plates can be incubated for 10-16 days at 37° C. under 5% CO2 to allow colony outgrowth. After incubation, the colonies can be stained by overlaying the agar with a solution of MTT (3-[4,5-dimethyl-thiazol-2-yl]-2,5-diphenyltetrazolium bromide, Thiazolyl blue) (1 mg/mL in PBS). Colonies can be counted and the IC50's can be determined.

Molecules are shown by their SMILES. Several values for one entry are separate records, joined by “and”; a condition that tells them apart may be missing. Identical values can stand only once.

On to `COC1(C(=O)N[C@H](C2=Cc3cccnc3[C@@H](N3CCN(C(=O)OCC4(C)CC4)CC3)c3ccc(Cl)cc32)c2cncn2C)CC1` [Compound 120.1], for which, in experiment [1], the IC50 is 0.5 to 5 nM.
Turning to `COC1(C(=O)N[C@H](C2=Cc3cccnc3[C@@H](N3CCN(C(=O)OC(C)C)CC3)c3ccc(Cl)cc32)c2cncn2C)CC1` [Compound 152.1, 4-{8-Chloro-6-[[(1-methoxy-cyclopropanecarbonyl)-amino]-(3-methyl-3H-imidazol-4-yl)-methyl]-11H-benzo[5.6]cyclohepta[1,2-b]pyridin-11-yl}-piperazine-1-carboxylic acid isopropyl ester], the IC50 in experiment [1] fell in the range of 0.5 to 5 nM.
Regarding `Cn1cncc1[C@H](NC(=O)OC1(C)CC1)C1=Cc2cccnc2[C@@H](N2CCN(C(=O)OC3(C)CC3)CC2)c2ccc(Cl)cc21` [Compound 108.1], the IC50 in experiment [1] was 0.5 to 5 nM and 1.5 nM; with Human tumor cells, below 0.5 nM.
Take `Cn1cncc1[C@H](NC(=O)OC1(C2CC2)CC1)C1=Cc2cccnc2[C@@H](N2CCN(C(=O)OC3CCCC3)CC2)c2ccc(Cl)cc21` [Compound 112.1, 4-{6-[(Bicyclopropyl-1-yloxycarbonylamino)-(3-methyl-3H-imidazol-4-yl)-methyl]-8-chloro-11H-benzo[5,6]cyclohepta[1,2-b]pyridin-11-yl}-piperazine-1-carboxylic acid cyclopentyl ester]: in experiment [1], the IC50 was 0.5 to 5 nM.
`CC(C)C1(OC(=O)N2CCN([C@H]3c4ccc(Cl)cc4C([C@@H](NC(=O)OC4(C)CC4)c4cncn4C)=Cc4cccnc43)CC2)CC1` [Compound 118.1] returned an IC50 in experiment [1] of 0.5 to 5 nM.
On the same count and under the same terms, the figure for `COC1(C(=O)N[C@H](C2=Cc3cccnc3[C@@H](N3CCN(C(=O)OCC(C)(C)C)CC3)c3ccc(Cl)cc32)c2cncn2C)CC1` [Compound 119.1] is 0.5 to 5 nM.
As for `COCC(=O)N[C@H](C1=Cc2cccnc2[C@@H](N2CCN(C(=O)OC(C)C)CC2)c2ccc(Cl)cc21)c1cncn1C` [Compound 136.1], the IC50 in experiment [1] was 0.5 to 5 nM and 0.6 nM; with Human tumor cells, 0.6 nM.

One may read the IC50 as the concentration at which inhibition is half-maximal. A low value points to inhibition by little substance.
